Data taken from DBAASP.
Converted amounts (≈) assume the structure as drawn. “And” between values parts separate entries of the source, which are not always exact repeats. Equal values may be shown once.

How the values were obtained:
Assay in all cases: ≥ marks a high value that may be exact or a test limit, other limits are often not marked, values filed in µg/mL are converted to µM
[1] = system: Escherichia coli ATCC 25922
[2] = system: Pseudomonas aeruginosa ATCC 27853
[3] = system: Staphylococcus aureus ATCC 25923
Escherichia coli = system: Escherichia coli
Staphylococcus aureus = system: Staphylococcus aureus

Row | SMILES | MIC [1] | MIC [3] [µM] | further results
1 | CC[C@H](C)[C@H](NC(=O)[C@H](CCSC)NC(=O)[C@H](CCCN=C(N)N)NC(=O)CNC(=O)[C@H](C)NC(=O)[C@H](Cc1cnc[nH]1)NC(=O)[C@H](Cc1ccccc1)NC(=O)[C@H](CC(C)C)NC(=O)CNC(=O)[C@H](CCCCN)NC(=O)[C@@H](NC(=O)[C@@H](NC(=O)[C@H](Cc1cnc[nH]1)NC(=O)[C@H](Cc1ccccc1)NC(=O)[C@H](Cc1ccccc1)NC(=O)[C@@H](N)Cc1ccccc1)[C@@H](C)CC)[C@@H](C)CC)C(=O)N[C@@H](Cc1cnc[nH]1)C(=O)NCC(=O)N[C@@H](CC(C)C)C(=O)N[C@H](C(=O)O)C(C)C [FFFHIIKGLFHAGRMIHGLV] | – | – | MIC [2]: 32 µM (≈ 74.9 µg/mL)
2 | CC[C@H](C)[C@H](NC(=O)[C@H](CCCCN)NC(=O)[C@@H]1CCCN1C(=O)[C@H](CC(C)C)NC(=O)[C@H](Cc1ccccc1)NC(=O)[C@H](CC(N)=O)NC(=O)[C@H](C)NC(=O)[C@H](C)NC(=O)[C@@H]1CSSC[C@H](NC(=O)[C@H](CC(C)C)NC(=O)CNC(=O)[C@H](C)NC(=O)[C@H](CC(C)C)NC(=O)[C@H](CC(C)C)NC(=O)[C@@H]2CCCN2C(=O)[C@H](CC(C)C)NC(=O)[C@@H](N)Cc2ccccc2)C(=O)N[C@@H](CCCCN)C(=O)N[C@@H]([C@@H](C)CC)C(=O)N[C@@H]([C@@H](C)O)C(=O)N[C@@H](CCCN=C(N)N)C(=O)N[C@@H](CCCCN)C(=O)N1)C(=O)N[C@@H](Cc1ccccc1)C(=O)O [FLPLLAGLCKITRKCAANFLPKIF] | – | – | MIC (Escherichia coli): 7 µM (≈ 18.7 µg/mL); MIC (Staphylococcus aureus): 1.5 µM (≈ 4.01 µg/mL)
3 | CC[C@H](C)[C@H](NC(=O)[C@H](CC(C)C)NC(=O)[C@H](C)NC(=O)[C@H](Cc1ccccc1)NC(=O)[C@H](Cc1ccccc1)NC(=O)CN)C(=O)N[C@@H](C)C(=O)N[C@@H](CCCCN)C(=O)N[C@H](C(=O)N[C@H](C(=O)N[C@@H](CO)C(=O)N[C@@H](CO)C(=O)N1CCC[C@H]1C(=O)N[C@@H](CC(C)C)C(=O)N[C@@H](Cc1ccccc1)C(=O)N[C@@H](CCCCN)C(=O)N[C@H](C(=O)N[C@@H](CC(C)C)C(N)=O)[C@@H](C)O)[C@@H](C)CC)[C@@H](C)CC [GFFALIAKIISSPLFKTL] | – | – | MIC (Escherichia coli): 20.3 µM (≈ 40 µg/mL)
4 | CC[C@H](C)[C@H](NC(=O)[C@H](CO)NC(=O)[C@H](C)NC(=O)[C@H](CC(C)C)NC(=O)CNC(=O)[C@H](C)NC(=O)[C@H](CCCCN)NC(=O)[C@H](C)NC(=O)[C@H](Cc1ccccc1)NC(=O)[C@H](CCCCN)NC(=O)[C@H](CCCCN)NC(=O)[C@H](CC(C)C)NC(=O)CNC(=O)[C@H](CCC(=O)O)NC(=O)[C@H](C)NC(=O)[C@H](C)NC(=O)[C@@H](NC(=O)[C@@H](NC(=O)[C@H](Cc1c[nH]c2ccccc12)NC(=O)[C@H](Cc1ccccc1)NC(=O)CN)[C@@H](C)O)[C@@H](C)O)C(=O)N[C@@H](CC(C)C)C(=O)N[C@@H](CC(N)=O)C(=O)N1CCC[C@H]1C(=O)N[C@@H](CCCCN)C(=O)O [GFWTTAAEGLKKFAKAGLASILNPK] | – | – | MIC (Escherichia coli): 80 µM (≈ 210 µg/mL); MIC (Staphylococcus aureus): > 80 µM
5 | CC[C@H](C)[C@H](NC(=O)CN)C(=O)N[C@@H](CC(C)C)C(=O)N[C@@H](CO)C(=O)N[C@@H](CC(N)=O)C(=O)N[C@H](C(=O)N[C@@H](CC(C)C)C(=O)NCC(=O)N[C@@H](CCSC)C(=O)NCC(=O)N[C@@H](CCCCN)C(=O)N[C@@H](CCCCN)C(=O)N[C@H](C(=O)N[C@H](C(=O)N[C@H]1CSSC[C@@H](C(=O)O)NC(=O)[C@H](CC(C)C)NC(=O)CNC(=O)[C@H](CO)NC(=O)[C@H](CC(C)C)NC(=O)CNC1=O)C(C)C)[C@@H](C)CC)C(C)C [GILSNVLGMGKKIVCGLSGLC] | – | – | MIC (Escherichia coli): 70 µM (≈ 144 µg/mL); MIC (Staphylococcus aureus): > 100 µM
6 | CC(C)C[C@H](NC(=O)[C@H](CC(C)C)NC(=O)[C@@H](NC(=O)[C@H](CCCCN)NC(=O)[C@H](C)NC(=O)[C@H](CCCN=C(N)N)NC(=O)[C@H](CCCCN)NC(=O)[C@H](CC(C)C)NC(=O)[C@H](CC(C)C)NC(=O)CN)[C@@H](C)O)C(N)=O [GLLKRAKTLL] | > 36.9 µM | > 36.9 | –
7 | CC[C@H](C)[C@H](NC(=O)[C@H](CCCN=C(N)N)NC(=O)[C@H](CO)NC(=O)[C@H](CC(C)C)NC(=O)[C@H](CC(C)C)NC(=O)CN)C(=O)N[C@@H](CCCCN)C(=O)N[C@H](C(=O)N[C@@H](CC(C)C)C(=O)N[C@@H](CC(C)C)C(N)=O)[C@@H](C)O [GLLSRIKTLL] | 100 µM (≈ 111 µg/mL) | – | –
8 | CC[C@H](C)[C@H](NC(=O)[C@H](C)NC(=O)CNC(=O)[C@H](C)NC(=O)[C@H](CCCCN)NC(=O)[C@H](CO)NC(=O)[C@H](C)NC(=O)[C@H](CCSC)NC(=O)CN)C(=O)N[C@@H](C)C(=O)NCC(=O)N[C@@H](CCCCN)C(=O)N[C@H](C(=O)N[C@@H](C)C(=O)N[C@@H](CCCCN)C(=O)N[C@H](C(=O)N[C@@H](C)C(=O)N[C@@H](Cc1c[nH]c2ccccc12)C(=O)N[C@@H](CCCCN)C(=O)N[C@@H](C)C(=O)N[C@@H](CC(C)C)C(N)=O)C(C)C)[C@@H](C)CC [GMASKAGAIAGKIAKVAWKAL] | 8.87 µM (≈ 18.1 µg/mL) | – | –
9 | CC[C@H](C)[C@H](NC(=O)[C@H](Cc1ccccc1)NC(=O)[C@H](CCCCN)NC(=O)[C@H](CC(C)C)NC(=O)[C@H](CC(C)C)NC(=O)[C@@H](N)CCCCN)C(=O)N[C@@H](CCCCN)C(=O)N[C@H](C(=O)N[C@@H](CC(C)C)C(=O)N[C@@H](CC(C)C)C(N)=O)[C@@H](C)O [KLLKFIKTLL] | 2.47 µM (≈ 3 µg/mL) | 5.75 (≈ 6.99 µg/mL) | –
10 | CC[C@H](C)[C@H](NC(=O)CNC(=O)[C@H](CO)NC(=O)[C@H](CCCN=C(N)N)NC(=O)[C@@H](NC(=O)CNC(=O)[C@H](Cc1c[nH]c2ccccc12)NC(=O)[C@@H](N)CC(C)C)[C@@H](C)O)C(=O)N[C@@H](CCC(N)=O)C(=O)N1CCC[C@H]1C(N)=O [LWGTRSGIQP] | > 100 µM | > 100 | MIC [2]: > 100 µM
11 | CC(C)[C@H](N)C(=O)N[C@H]1CSSC[C@@H](C(=O)N[C@H](C(=O)NCC(=O)N[C@@H](CCCN=C(N)N)C(=O)O)C(C)C)NC(=O)[C@H](C(C)C)NC(=O)[C@@H]2CSSC[C@H](NC(=O)[C@H](Cc3ccc(O)cc3)NC1=O)C(=O)N[C@@H](CCCN=C(N)N)C(=O)N[C@@H](CCCN=C(N)N)C(=O)N[C@@H](CCCN=C(N)N)C(=O)N[C@@H](Cc1ccccc1)C(=O)N2 [VCYCRRRFCVCVGR] | – | – | MIC (Escherichia coli): 0.349 µM (≈ 0.599 µg/mL)
12 | NC(=O)[C@H](Cc1c[nH]c2ccccc12)NC(=O)[C@H](CCCN=C(N)N)NC(=O)[C@H](CCCN=C(N)N)NC(=O)[C@@H](N)Cc1c[nH]c2ccccc12 [WRRW] | > 285 µM | 285 (≈ 200 µg/mL) | –
13 | NC(=O)[C@H](Cc1ccc(O)cc1)NC(=O)[C@H](CCCN=C(N)N)NC(=O)[C@H](Cc1c[nH]c2ccccc12)NC(=O)[C@H](CCCN=C(N)N)NC(=O)[C@@H](N)Cc1c[nH]c2ccccc12 [WRWRY] | 115 µM (≈ 99.9 µg/mL) | 57.7 (≈ 49.9 µg/mL) | –

Now from value to compound, other results behind:

Row | MIC [1] | MIC [3] [µM] | SMILES | further results
14 | > 100 µM | > 100 | CC(C)[C@H](NC(=O)[C@H](CC(=O)O)NC(=O)[C@H](CO)NC(=O)[C@H](CCCCN)NC(=O)CNC(=O)[C@H](CO)NC(=O)[C@H](CO)NC(=O)[C@H](Cc1cnc[nH]1)NC(=O)[C@H](CCC(N)=O)NC(=O)[C@@H](N)CCC(=O)O)C(N)=O [EQHSSGKSDV] | MIC [2]: > 100 µM
15 | 4 µM (≈ 9.34 µg/mL) | – | CC[C@H](C)[C@H](NC(=O)CN)C(=O)N[C@@H](CCCN=C(N)N)C(=O)N[C@@H](CC(=O)O)C(=O)N[C@H](C(=O)N[C@@H](CC(C)C)C(=O)N[C@@H](CCCCN)C(=O)NCC(=O)N[C@@H](C)C(=O)N[C@@H](C)C(=O)N[C@@H](CCCCN)C(=O)N[C@@H](C)C(=O)N[C@@H](Cc1ccccc1)C(=O)N[C@H](C(=O)N[C@@H](CCCCN)C(=O)N[C@H](C(=O)N[C@H](C(=O)N[C@@H](C)C(=O)NCC(=O)N[C@@H](Cc1cnc[nH]1)C(=O)N[C@H](C(=O)N[C@@H](C)C(=O)N[C@@H](CC(N)=O)C(N)=O)[C@@H](C)CC)C(C)C)[C@@H](C)O)C(C)C)C(C)C [GIRDVLKGAAKAFVKTVAGHIAN] | –
16 | > 125 µM | – | CC[C@H](C)[C@H](NC(=O)[C@H](CCCCN)NC(=O)[C@H](CCCCN)NC(=O)[C@@H](NC(=O)[C@@H](NC(=O)[C@H](CC(=O)O)NC(=O)[C@H](Cc1ccccc1)NC(=O)[C@H](CC(C)C)NC(=O)CN)[C@@H](C)CC)[C@@H](C)CC)C(=O)N[C@@H](Cc1c[nH]c2ccccc12)C(=O)N[C@@H](CCC(=O)O)C(=O)N[C@@H](CO)C(=O)N[C@@H](Cc1ccccc1)C(N)=O [GLFDIIKKIWESF] | MIC [2]: > 125 µM
17 | 2 µM (≈ 5.44 µg/mL) | – | CC[C@H](C)[C@H](N)C(=O)N[C@H](C(=O)N[C@@H](CCCCN)C(=O)N[C@@H](CCCCN)C(=O)N[C@@H](Cc1ccccc1)C(=O)N[C@@H](CC(C)C)C(=O)N[C@@H](Cc1cnc[nH]1)C(=O)N[C@@H](CO)C(=O)N[C@H](C(=O)N[C@@H](Cc1c[nH]c2ccccc12)C(=O)N[C@@H](CCCCN)C(=O)N[C@@H](Cc1ccccc1)C(=O)NCC(=O)N[C@@H](CCCCN)C(=O)N[C@@H](C)C(=O)N[C@@H](Cc1ccccc1)C(=O)N[C@H](C(=O)NCC(=O)N[C@@H](CCC(=O)O)C(=O)N[C@H](C(=O)N[C@@H](CCSC)C(=O)N[C@@H](CC(N)=O)C(=O)N[C@H](C(=O)O)[C@@H](C)CC)[C@@H](C)CC)C(C)C)[C@@H](C)CC)[C@@H](C)CC [IIKKFLHSIWKFGKAFVGEIMNI] | –
18 | 44.3 µM and 62.7 µM | – | CC[C@H](C)[C@H](NC(=O)[C@H](Cc1cnc[nH]1)NC(=O)[C@H](CCCN=C(N)N)NC(=O)[C@H](Cc1c[nH]c2ccccc12)NC(=O)[C@@H](NC(=O)[C@H](CCCN=C(N)N)NC(=O)[C@H](CCCCN)NC(=O)[C@H](C)NC(=O)CNC(=O)[C@H](CCCN=C(N)N)NC(=O)[C@H](CCSC)NC(=O)[C@H](C)NC(=O)[C@@H](N)CC(N)=O)C(C)C)C(N)=O [NAMRGAKRVWRHI] | –
19 | 1620 µM (≈ 1250 µg/mL) | 809 (≈ 625 µg/mL) | CC(C)[C@H](NC(=O)[C@H](C)NC(=O)[C@@H](N)CCC(N)=O)C(=O)N[C@@H](CCC(=O)O)C(=O)N[C@@H](C)C(=O)N[C@@H](CCC(N)=O)C(=O)N[C@@H](CCCCN)C(=O)O [QAVEAQK] | –
20 | 32 µM (≈ 59.4 µg/mL) | – | CC(C)C[C@H](NC(=O)[C@H](Cc1ccccc1)NC(=O)[C@@H]1CCCN1C(=O)[C@H](Cc1c[nH]c2ccccc12)NC(=O)[C@H](Cc1ccc(O)cc1)NC(=O)[C@H](Cc1ccc(O)cc1)NC(=O)[C@@H]1CCCN1C(=O)[C@H](Cc1ccccc1)NC(=O)[C@H](CCCN=C(N)N)NC(=O)[C@H](CCCN=C(N)N)NC(=O)[C@@H](N)C(C)C)C(=O)N[C@@H](CCCN=C(N)N)C(=O)N[C@@H](CCCN=C(N)N)C(N)=O [VRRFPYYWPFLRR] | –
